Experiment: Glutathione exchange experiment (stability towards competing sulfhydryl groups, RP-HPLC)
Type: physicochemical
Conditions: 0.1 M sodium phosphate buffer pH 7, 10 equiv of glutathione, 37° C., 96 hours
Experimental: This example provides a stability experiment of the compound of the invention towards competing sulfhydryl groups.
Compound 4aa was incubated in a 0.1 M sodium phosphate buffer at pH 7 with 10 equiv of glutathione, incubated at 37° C. and shaken for 96 hours. The stability was checked using RP-HPLC [Phenomenex Luna C18 column using a flow rate of 1 mL/min; H2O method: 3 minutes column flushing with 100% H2O, then a gradient from 0 to 100% ACN in 20 minutes, followed by 5 minutes of flushing with 100% ACN]. […] Representative HPLC chromatogram is shown (FIG. 7).

Molecule	GSH exchange reaction	stability of conjugated compound in presence of glutathione
1-benzyl-5-hydroxy-4-((2-hydroxyethyl)thio)-5-methylpyrrolidin-2-one [Compound 4aa]	no GSH exchange reaction takes place	–
CC1(O)C(SCCO)CC(=O)N1Cc1ccccc1 (centres unmarked) [4′aa, 1-benzyl-5-hydroxy-4-((2-hydroxyethyl)thio)-5-methylpyrrolidin-2-one]	–	stable

From patent US12479799B2, “Bioconjugation reagent and methods” (Universiteit Gent, priority 2019, dated 2025)
